According to PMC9248904, “Genomic and Chemical Decryption of the Bacteroidetes Phylum for Its Potential to Biosynthesize Natural Products” (Microbiology Spectrum, 2022):
Values after ≈ are worked out from the molar mass of the structure shown. Where two headings read alike, the source gives them in different places.

Columns and labels:
[1] = tested on: Fusarium oxysporum ATCC 7601; assay: microbe, parasite or virus in culture; format: cell-based; settings: F. oxysporum ATCC 7601, potato dextrose broth, 25°C, 100,000 spores/mL, BacTiter-Glo, Iron -, at least triplicate
Procedure: (§1) The MIC was determined by broth microdilution method in 96-well plates with 100 µL assay volume per well following EUCAST instructions ([116], [117]) for E. coli ATCC 35218, E. coli ATCC 25922 ΔTolC, E. coli MG1655, Pseudomonas aeruginosa ATCC 27853, P. aeruginosa PAO750, Klebsiella pneumoniae ATCC 13883, Moraxella catarrhalis ATCC 25238, Acinetobacter baumannii ATCC 19606, Bacillus subtilis DSM 10, Staphylococcus aureus ATCC 25923, and Micrococcus luteus DSM 20030. Listeria monocytogenes DSM 20600 (1 day of incubation at 37°C) and Mycobacterium smegmatis ATCC 607 (2 days of incubation at 37°C) were grown in BHI broth supplemented with 1% (vol/vol) Tween 80. Candida albicans FH2173 was grown in MHIIB over 2 days of incubation at 37°C (pre-culture 2 days at 28°C). Approximate inoculation cell density for all strains was 500,000 CFU/mL, except 1,000,000 CFU/mL were used for M. smegmatis and C. albicans. For all fungal screenings 100,000 spores/mL were used and incubated at 37°C for Aspergillus flavus ATCC 9170 (MHIIB) and 25°C for Z. tritici MUCL45407 (4 g/L yeast extract, 4 g/L malt extract, 4 g/L sucrose) and Fusarium oxysporum ATCC 7601 (potato dextrose broth, Sigma). Growth inhibition was detected by optical density (600 nm) or for M. luteus, L. monocytogenes, C. albicans, M. smegmatis, and all fungi by quantification of free ATP using BacTiter-Glo after 24 to 48 h (72 h for Z. tritici). All MIC assays were performed at least in triplicate. FE(III)-citrate was added at molar ratios of 1:1 to samples in DMSO to test compounds in their iron bound conformation.

[2] = tested on: Z. tritici MUCL45407; assay: microbe, parasite or virus in culture; format: cell-based; settings: Z. tritici MUCL45407, 25°C, 72 h, 100,000 spores/mL, BacTiter-Glo, Iron -, at least triplicate
Procedure: as §1

[3] = tested on: Aspergillus flavus ATCC 9170; assay: microbe, parasite or virus in culture; format: cell-based; settings: A. flavus ATCC 9170, MHIIB, 37°C, 100,000 spores/mL, BacTiter-Glo, Iron -, at least triplicate
Procedure: as §1

[4] = tested on: Candida albicans FH2173; assay: microbe, parasite or virus in culture; format: cell-based; settings: C. albicans FH2173, MHIIB, 2 days 37°C, BacTiter-Glo, Iron -, at least triplicate
Procedure: as §1

[5] = tested on: Mycobacterium smegmatis ATCC 607; assay: microbe, parasite or virus in culture; format: cell-based; settings: M. smegmatis ATCC 607; BHI broth + 1% Tween 80, 2 days 37°C; BacTiter-Glo; Iron -; at least triplicate
Procedure: as §1

[6] = tested on: Bacillus subtilis DSM 10; format: cell-based; settings: B. subtilis DSM 10; broth microdilution, 96-well, EUCAST; OD600; Iron -; at least triplicate
Procedure: as §1

[7] = tested on: Staphylococcus aureus ATCC 25923; format: cell-based; settings: S. aureus ATCC 25923; broth microdilution, 96-well, EUCAST; OD600; Iron -; at least triplicate
Procedure: as §1

[8] = tested on: Micrococcus luteus DSM 20030; format: cell-based; settings: M. luteus DSM 20030; broth microdilution, 96-well; free ATP (BacTiter-Glo); Iron -; at least triplicate
Procedure: as §1

[9] = tested on: Pseudomonas aeruginosa ATCC 27853; format: cell-based; settings: P. aeruginosa ATCC 27853; broth microdilution, 96-well, EUCAST; OD600; Iron -; at least triplicate
Procedure: as §1

[10] = tested on: Acinetobacter baumannii ATCC 19606; format: cell-based; settings: A. baumannii ATCC 19606; broth microdilution, 96-well, EUCAST; OD600; Iron -; at least triplicate
Procedure: as §1

[11] = tested on: Moraxella catarrhalis ATCC 25238; format: cell-based; settings: M. catarrhalis ATCC 25238; broth microdilution, 96-well, EUCAST; OD600; Iron -; at least triplicate
Procedure: as §1

[12] = tested on: E. coli ATCC 35218; format: cell-based, Escherichia coli; settings: E. coli ATCC 35218; broth microdilution, 96-well, EUCAST; OD600; chitinopeptins without iron (Iron -); at least triplicate
Procedure: as §1

[13] = tested on: E. coli ATCC 25922 ΔTolC; format: cell-based, Escherichia coli; settings: broth microdilution, 96-well, EUCAST, OD600, Iron -, at least triplicate
Procedure: as §1

[14] = tested on: Klebsiella pneumoniae ATCC 13883; format: cell-based; settings: K. pneumoniae ATCC 13883; broth microdilution, 96-well, EUCAST; OD600; Iron -; at least triplicate
Procedure: as §1

[15] = tested on: Listeria monocytogenes DSM 20600; format: cell-based; settings: L. monocytogenes DSM 20600; BHI broth + 1% Tween 80, 1 day 37°C; BacTiter-Glo; Iron -; at least triplicate
Procedure: as §1

[16] = tested on: P. aeruginosa PAO750; format: cell-based, Pseudomonas aeruginosa; settings: broth microdilution, 96-well, EUCAST, OD600, Iron -, at least triplicate
Procedure: as §1

[17] = tested on: E. coli MG1655; format: cell-based, Escherichia coli; settings: broth microdilution, 96-well, EUCAST, OD600, Iron -, at least triplicate
Procedure: as §1

Row | Molecule | MIC [1] | MIC [3] | MIC [5] | MIC [4] | MIC [6] | MIC [7] | MIC [8] | MIC [9] | MIC [10] | MIC [11] | MIC [12] | MIC [13] | MIC [14] | MIC [15] | MIC [16] | MIC [17] | other results
1 | CC(C)(C)C(O)(CCc1ccc(Cl)cc1)Cn1cncn1 (stereo not drawn) [Tebuconazole, reference compound] |  |  |  |  |  |  |  |  |  |  |  |  |  |  |  |  | MIC ([1]; Fusarium oxysporum, ATCC7601, read-out: MIC): > 64 µg/mL; MIC ([2]; Zymoseptoria tritici, read-out: MIC): 0.5 µg/mL (≈ 1.62 µM); MIC ([3]; Aspergillus flavus, ATCC9170, read-out: MIC): 2 µg/mL (≈ 6.5 µM); MIC ([4]; Candida albicans, 48 h, read-out: MIC): 2 µg/mL (≈ 6.5 µM)
2 | Chitinopeptin C1+C2 | > 64 µg/mL | 64 µg/mL | > 64 µg/mL | 16 µg/mL | 4 µg/mL | > 64 µg/mL | 32 µg/mL | > 64 µg/mL | 16 µg/mL | 2 µg/mL | > 64 µg/mL | > 64 µg/mL |  |  |  |  | MIC [2]: 16 µg/mL
3 | Chitinopeptin D1+D2 | > 64 µg/mL | 64 µg/mL | > 64 µg/mL | 16 µg/mL | 4 µg/mL | > 64 µg/mL | 32 µg/mL | > 64 µg/mL | 16 µg/mL | 2 µg/mL | > 64 µg/mL | > 64 µg/mL |  |  |  |  | 
4 | Gentamycin [reference compound] |  |  |  |  | ≤ 0.031 µg/mL | 0.063 µg/mL | ≤ 0.031 µg/mL | 1 µg/mL | 16 µg/mL | 0.125 µg/mL | 0.125 µg/mL | 0.25 µg/mL | ≤ 0.031 µg/mL | ≤ 0.031 µg/mL | 0.125 µg/mL | 0.5 µg/mL | 
5 | Rifamicin [reference compound] |  |  | 8 µg/mL |  | ≤ 0.031 µg/mL | ≤ 0.031 µg/mL | ≤ 0.031 µg/mL | 32 µg/mL | 2 µg/mL | ≤ 0.031 µg/mL | 4 µg/mL | 2 µg/mL | 8 µg/mL | ≤ 0.031 µg/mL | 16 µg/mL | 16 µg/mL | 
